Laboratory results from PubChem BioAssay AID1963967 (Molecular Pharmacology Branch, DTP, NCI, 2024).

System: 855422-203-R-J1-PDC spheroids with HUVEC/MSC, viability
Assay: Anticancer human tumor 855422-203-R-J1-PDC patient-derived bladder carcinoma cell line growth inhibition [PI3K]
Settings: for viability, T/C: stronger effect = lower value
How it was run: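 Viability of mixed-cell spheroids was determined after exposure to pairwise combinations, one partner being inavolisib, alpelisib, duvelisib or copanlisib. Highest tested concentration matched clinical Cmax where known and 10 microM where not, descending in half-log steps.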

[1] = curve of first compound, second compound 0.0316 µM
[2] = curve of first compound, second compound 0.1 µM
[3] = curve of first compound, second compound 0.316 µM
[4] = curve of first compound, second compound 1 µM
[5] = curve of first compound, second compound 0.00316 µM
[6] = curve of first compound, second compound 0.01 µM
[7] = second compound 0.00316 µM, first compound 0.0316 µM
[8] = second compound 0.00316 µM, first compound 0.1 µM
[9] = second compound 0.00316 µM, first compound 0.316 µM
[10] = second compound 0.00316 µM, first compound 1 µM
[11] = second compound 0.00316 µM, first compound 3.16 µM
[12] = second compound 0.00316 µM, first compound 10 µM
[13] = second compound 0.01 µM, first compound 0.0316 µM
[14] = second compound 0.01 µM, first compound 0.1 µM
[15] = second compound 0.01 µM, first compound 0.316 µM
[16] = second compound 0.01 µM, first compound 1 µM
[17] = second compound 0.01 µM, first compound 3.16 µM
[18] = second compound 0.01 µM, first compound 10 µM
[19] = second compound 0.0316 µM, first compound 0.0316 µM
[20] = second compound 0.0316 µM, first compound 0.1 µM
[21] = second compound 0.0316 µM, first compound 0.316 µM
[22] = second compound 0.0316 µM, first compound 1 µM
[23] = second compound 0.0316 µM, first compound 3.16 µM
[24] = second compound 0.0316 µM, first compound 10 µM
[25] = second compound 0.1 µM, first compound 0.0316 µM
[26] = second compound 0.1 µM, first compound 0.1 µM
[27] = second compound 0.1 µM, first compound 0.316 µM
[28] = second compound 0.1 µM, first compound 1 µM
[29] = second compound 0.1 µM, first compound 3.16 µM
[30] = second compound 0.1 µM, first compound 10 µM
[31] = second compound 0.316 µM, first compound 0.0316 µM
[32] = second compound 0.316 µM, first compound 0.1 µM
[33] = second compound 0.316 µM, first compound 0.316 µM
[34] = second compound 0.316 µM, first compound 1 µM
[35] = second compound 0.316 µM, first compound 3.16 µM
[36] = second compound 0.316 µM, first compound 10 µM
[37] = second compound 1 µM, first compound 0.0316 µM
[38] = second compound 1 µM, first compound 0.1 µM
[39] = second compound 1 µM, first compound 0.316 µM
[40] = second compound 1 µM, first compound 1 µM
[41] = second compound 1 µM, first compound 3.16 µM
[42] = second compound 1 µM, first compound 10 µM
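Note: agents incubated with spheroids for one week before read-out.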
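Throughout, for viability, T/C: 100% = DMSO vehicle-treated control wells.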

`Cn1cnc2c(F)c(Nc3ccc(Br)cc3Cl)c(C(=O)NOCCO)cc21` + Cc1nc(NC(=O)N2CCCC2C(N)=O)sc1-c1ccnc(C(C)(C)C(F)(F)F)c1 showed an IC50 [1] of 2250 nM, an IC50 [2] of 2580 nM and an IC50 [3] of 1350 nM. The IC50 [4] was 111 nM, the IC50 (curve of first compound, second compound 3.16 µM) was < 9.49 nM and the IC50 (curve of first compound, second compound 10 µM) was < 9.49 nM. For the same compound, the viability, T/C (second compound 0.0316 µM, first compound 0.00949 µM) was 94%, the viability, T/C (second compound 0.0316 µM, first compound 0.03 µM) was 79.5% and the viability, T/C (second compound 0.0316 µM, first compound 0.0949 µM) was 116%. It also gave a viability, T/C (second compound 0.0316 µM, first compound 0.3 µM) of 90.4%, a viability, T/C (second compound 0.0316 µM, first compound 0.949 µM) of 82.1% and a viability, T/C (second compound 0.0316 µM, first compound 3 µM) of 39.2%. The viability, T/C (second compound 0.1 µM, first compound 0.00949 µM) was 96.6%, the viability, T/C (second compound 0.1 µM, first compound 0.03 µM) was 92.9% and the viability, T/C (second compound 0.1 µM, first compound 0.0949 µM) was 89.8%. For the same compound, the viability, T/C (second compound 0.1 µM, first compound 0.3 µM) was 82.1%, the viability, T/C (second compound 0.1 µM, first compound 0.949 µM) was 79.4% and the viability, T/C (second compound 0.1 µM, first compound 3 µM) was 45.1%. The viability, T/C (second compound 0.316 µM, first compound 0.00949 µM) was 85.9%, the viability, T/C (second compound 0.316 µM, first compound 0.03 µM) was 78% and the viability, T/C (second compound 0.316 µM, first compound 0.0949 µM) was 89.9%. It also gave a viability, T/C (second compound 0.316 µM, first compound 0.3 µM) of 75.7%, a viability, T/C (second compound 0.316 µM, first compound 0.949 µM) of 61.6% and a viability, T/C (second compound 0.316 µM, first compound 3 µM) of 25%. The viability, T/C (second compound 1 µM, first compound 0.00949 µM) was 53.1%, the viability, T/C (second compound 1 µM, first compound 0.03 µM) was 59.4% and the viability, T/C (second compound 1 µM, first compound 0.0949 µM) was 45.1%. The viability, T/C (second compound 1 µM, first compound 0.3 µM) was 44.3%, the viability, T/C (second compound 1 µM, first compound 0.949 µM) was 36.2% and the viability, T/C (second compound 1 µM, first compound 3 µM) was 10.2%. The viability, T/C (second compound 3.16 µM, first compound 0.00949 µM) was 33.7%, the viability, T/C (second compound 3.16 µM, first compound 0.03 µM) was 32.9% and the viability, T/C (second compound 3.16 µM, first compound 0.0949 µM) was 21.7%. The viability, T/C (second compound 3.16 µM, first compound 0.3 µM) was 21.2%, the viability, T/C (second compound 3.16 µM, first compound 0.949 µM) was 16% and the viability, T/C (second compound 3.16 µM, first compound 3 µM) was 6%. The viability, T/C (second compound 10 µM, first compound 0.00949 µM) was 22.9%, the viability, T/C (second compound 10 µM, first compound 0.03 µM) was 11.8% and the viability, T/C (second compound 10 µM, first compound 0.0949 µM) was 12.7%. The viability, T/C (second compound 10 µM, first compound 0.3 µM) was 8.91%, the viability, T/C (second compound 10 µM, first compound 0.949 µM) was 5.5% and the viability, T/C (second compound 10 µM, first compound 3 µM) was 1.88%.
`C=CC(=O)N1CCN(c2nc(=O)n(-c3c(C)ccnc3C(C)C)c3nc(-c4c(O)cccc4F)c(F)cc23)C(C)C1` (stereo not drawn) + CC(Nc1ccc2c(c1)OCCn1cc(N3C(=O)OCC3C(F)F)nc1-2)C(N)=O was tested, and the IC50 [5] was > 10000 nM, the IC50 [6] was > 10000 nM and the IC50 [1] was > 10000 nM. For the same compound, the IC50 [2] was > 10000 nM, the IC50 [3] was > 10000 nM and the IC50 [4] was < 31.6 nM. For the same compound, the viability, T/C [7] was 80.4%, the viability, T/C [8] was 95.2% and the viability, T/C [9] was 116%. The viability, T/C [10] was 101%, the viability, T/C [11] was 122% and the viability, T/C [12] was 121%. It also gave a viability, T/C [13] of 96.1%, a viability, T/C [14] of 98.5% and a viability, T/C [15] of 121%. For the same compound, the viability, T/C [16] was 99.5%, the viability, T/C [17] was 119% and the viability, T/C [18] was 120%. The viability, T/C [19] was 91.5%, the viability, T/C [20] was 81.1% and the viability, T/C [21] was 96.7%. It also gave a viability, T/C [22] of 90.6%, a viability, T/C [23] of 99.6% and a viability, T/C [24] of 99.5%. For the same compound, the viability, T/C [25] was 80.2%, the viability, T/C [26] was 66.1% and the viability, T/C [27] was 75.5%. It also gave a viability, T/C [28] of 89%, a viability, T/C [29] of 80.8% and a viability, T/C [30] of 93.4%. The viability, T/C [31] was 54.5%, the viability, T/C [32] was 54.4% and the viability, T/C [33] was 53.8%. It also gave a viability, T/C [34] of 75%, a viability, T/C [35] of 73.9% and a viability, T/C [36] of 68.8%. The viability, T/C [37] was 39%, the viability, T/C [38] was 30.9% and the viability, T/C [39] was 39.2%. The viability, T/C [40] was 44%, the viability, T/C [41] was 50.6% and the viability, T/C [42] was 38.7%.
In the case of `C#Cc1c(F)ccc2cc(O)cc(-c3ncc4c(N5CC6CCC(C5)N6)nc(OCC56CCCN5CC(F)C6)nc4c3F)c12` (stereo not drawn) + CC(Nc1ccc2c(c1)OCCn1cc(N3C(=O)OCC3C(F)F)nc1-2)C(N)=O, the IC50 [5] is reported as > 10000 nM, the IC50 [6] is reported as > 10000 nM and the IC50 [1] is reported as > 10000 nM. For the same compound, the IC50 [2] was > 10000 nM, the IC50 [3] was 3610 nM and the IC50 [4] was < 31.6 nM. The viability, T/C [7] was 94.4%, the viability, T/C [8] was 85.1% and the viability, T/C [9] was 109%. The viability, T/C [10] was 89.2%, the viability, T/C [11] was 107% and the viability, T/C [12] was 110%. It also gave a viability, T/C [13] of 106%, a viability, T/C [14] of 93% and a viability, T/C [15] of 96.6%. It also gave a viability, T/C [16] of 98.2%, a viability, T/C [17] of 110% and a viability, T/C [18] of 116%. For the same compound, the viability, T/C [19] was 82.4%, the viability, T/C [20] was 87.8% and the viability, T/C [21] was 89.9%. For the same compound, the viability, T/C [22] was 92.4%, the viability, T/C [23] was 105% and the viability, T/C [24] was 92.9%. For the same compound, the viability, T/C [25] was 71.7%, the viability, T/C [26] was 69.8% and the viability, T/C [27] was 58.7%. It also gave a viability, T/C [28] of 82.8%, a viability, T/C [29] of 77.8% and a viability, T/C [30] of 73.6%. For the same compound, the viability, T/C [31] was 55.5%, the viability, T/C [32] was 55.3% and the viability, T/C [33] was 44.7%. For the same compound, the viability, T/C [34] was 54.6%, the viability, T/C [35] was 53.9% and the viability, T/C [36] was 29.1%. It also gave a viability, T/C [37] of 38.7%, a viability, T/C [38] of 31.5% and a viability, T/C [39] of 35.1%. The viability, T/C [40] was 32.8%, the viability, T/C [41] was 29.4% and the viability, T/C [42] was 17.6%.
For `CC(C)n1nc(-c2ccc3oc(N)nc3c2)c2c(N)ncnc21`, the viability, T/C (compound 0.000316 µM) was 113% [middle of 4 runs], the viability, T/C (compound 0.001 µM) was 93.4% [middle of 4 runs] and the viability, T/C (compound 0.00316 µM) was 113% [middle of 4 runs]. For the same compound, the viability, T/C (compound 0.01 µM) was 91.1% [middle of 4 runs], the viability, T/C (compound 0.0316 µM) was 80.6% [middle of 4 runs] and the viability, T/C (compound 0.1 µM) was 17.8% [middle of 4 runs]. The IC50 (curve of compound) was 55.3 nM [middle of 4 runs].
